Assay results: patent publication US20260297080A1, “BICYCLIC COMPOUNDS AS CDK INHIBITORS” (BeOne Medicines I GmbH, priority 2022, published 2026)

Assays:
CDK2/Cyclin E1 = CDK2/Cyclin E1 (Homo sapiens, UniProt P24941); experiment: CDK2/Cyclin E1 Biochemical Assay (TR-FRET), 0.060 mM ATP; conditions: 0.15 μM Rb (Ser780)-biotin substrate, pH7.0, 60 min preincubation, 120 min reaction, room temperature
How it was run: (§1)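 TR-FRET readout: 665/620 nm ratio from Eu-cryptate anti-pRb(Ser780) antibody plus streptavidin-XL665, converted to % inhibition and fitted (4-parameter logistic) for IC50. Reactions used 0.15 μM biotinylated Rb (Ser780) substrate, compound 0–10 μM, 60 min enzyme–compound preincubation, then 120 min reaction at room temperature.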

CDK1/Cyclin B1 = CDK1/Cyclin B1 (Homo sapiens, UniProt P06493); experiment: CDK1/Cyclin B1 Biochemical Assay (TR-FRET), 0.015 mM ATP; conditions: 0.15 μM Rb (Ser780)-biotin substrate, pH7.0, 60 min preincubation, 120 min reaction, room temperature
How it was run: as §1

Chain of CDK1/Cyclin B1 (P06493 whole entry): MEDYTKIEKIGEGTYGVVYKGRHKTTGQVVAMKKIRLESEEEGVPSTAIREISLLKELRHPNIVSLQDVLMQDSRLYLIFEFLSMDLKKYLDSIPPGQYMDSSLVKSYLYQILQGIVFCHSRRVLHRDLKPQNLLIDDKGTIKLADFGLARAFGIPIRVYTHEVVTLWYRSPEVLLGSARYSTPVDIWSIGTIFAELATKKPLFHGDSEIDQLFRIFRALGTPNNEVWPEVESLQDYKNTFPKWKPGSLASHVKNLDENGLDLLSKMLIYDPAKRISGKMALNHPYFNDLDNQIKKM
Chain of CDK1/Cyclin B1 (P14635 whole entry partner): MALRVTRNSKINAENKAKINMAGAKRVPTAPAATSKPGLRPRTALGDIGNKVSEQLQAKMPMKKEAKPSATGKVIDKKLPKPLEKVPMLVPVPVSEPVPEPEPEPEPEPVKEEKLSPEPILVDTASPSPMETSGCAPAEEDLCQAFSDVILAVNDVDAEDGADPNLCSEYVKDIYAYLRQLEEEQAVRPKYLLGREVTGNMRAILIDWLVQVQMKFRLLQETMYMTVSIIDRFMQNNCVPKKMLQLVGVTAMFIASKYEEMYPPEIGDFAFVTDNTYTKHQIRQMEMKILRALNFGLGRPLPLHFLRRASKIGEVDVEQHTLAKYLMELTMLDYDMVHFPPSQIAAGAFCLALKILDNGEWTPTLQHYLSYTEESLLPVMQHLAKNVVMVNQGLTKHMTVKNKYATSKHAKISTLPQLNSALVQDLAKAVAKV

SMILES | IC50 (CDK2/Cyclin E1) | IC50 (CDK1/Cyclin B1)
CC(C)NC(=O)O[C@H]1CC[C@@H](c2cc(Nc3cc4c(cc3Cl)S(=O)(=O)NC4)n[nH]2)C1 (relative stereo) [Example 27, cis-3-(3-((6-chloro-1,1-dioxido-2,3-dihydrobenzo[d]isothiazol-5-yl)amino)-1H-pyrazol-5-yl)cyclopentyl isopropylcarbamate] | 33 nM | 958 nM
O=C(NC1CCC1)O[C@@H]1CC[C@H](c2cc(Nc3ccc4c(c3F)CS(=O)(=O)N4)n[nH]2)C1 (single isomer, unassigned) [Example 399a] | 6.2 nM | 264 nM
C[C@@H](CO)NC(=O)O[C@H]1CC[C@@H](c2cc(Nc3ccc4c(c3F)CN(C)S4(=O)=O)n[nH]2)C1 (relative stereo) [Example 351, cis-3-(3-((4-fluoro-2-methyl-1,1-dioxido-2,3-dihydrobenzo[d]isothiazol-5-yl)amino)-1H-pyrazol-5-yl)cyclopentyl((S)-1-hydroxypropan-2-yl)carbamate] | 40 nM | 658 nM
CC(C)NC(=O)O[C@H]1CC[C@@H](c2cc(Nc3ccc4c(c3F)CNS4(=O)=O)n[nH]2)C1 (single isomer, unassigned) [Example 9a, cis-3-(3-((4-fluoro-1,1-dioxido-2,3-dihydrobenzo[d]isothiazol-5-yl)amino)-1H-pyrazol-5-yl)cyclopentyl isopropylcarbamate] | 4.5 nM | 375 nM
CC(C)NC(=O)O[C@H]1CC[C@@H](c2cc(Nc3ccc4c(c3)C(C)S(=O)(=O)N4C)n[nH]2)C1 (relative stereo) [Example 207, cis-3-(3-((1,3-dimethyl-2,2-dioxido-1,3-dihydrobenzo[c]isothiazol-5-yl)amino)-1H-pyrazol-5-yl)cyclopentyl isopropylcarbamate] | 6.6 nM | 35 nM
CN1c2ccc(Nc3cc([C@@H]4CC[C@H](OC(=O)NC5(C)COC5)C4)[nH]n3)c(F)c2CS1(=O)=O (single isomer, unassigned) [Example 332b, cis-3-(3-((4-fluoro-1-methyl-2,2-dioxido-1,3-dihydrobenzo[c]isothiazol-5-yl)amino)-1H-pyrazol-5-yl)cyclopentyl(3-methyloxetan-3-yl)carbamate] | 3.5 nM | 160 nM
CCCNC(=O)O[C@H]1CC[C@@H](c2cc(Nc3ccc4c(c3)CNS4(=O)=O)n[nH]2)C1 (relative stereo) [Example 178, cis-3-(3-((1,1-dioxido-2,3-dihydrobenzo[d]isothiazol-5-yl)amino)-1H-pyrazol-5-yl)cyclopentyl propylcarbamate] | 1.5 nM | 41 nM
CC(C)NC(=O)O[C@H]1CC[C@@H](c2cc(Nc3ccc4c(c3)C(C)S(=O)(=O)N4)n[nH]2)C1 (single isomer, unassigned) [Example 384c, cis-3-(3-((3-methyl-2,2-dioxido-1,3-dihydrobenzo[c]isothiazol-5-yl)amino)-1H-pyrazol-5-yl)cyclopentyl isopropylcarbamate] | 1.2 nM | 14 nM
CC(CC(F)(F)F)NC(=O)O[C@H]1CC[C@@H](c2cc(Nc3cc4c(cc3F)S(=O)(=O)NC4)n[nH]2)C1 (relative stereo) [Example 412, cis-3-(3-((6-fluoro-1,1-dioxido-2,3-dihydrobenzo[d]isothiazol-5-yl)amino)-1H-pyrazol-5-yl)cyclopentyl(4,4,4-trifluorobutan-2-yl)carbamate] | 1.8 nM | 147 nM
O=C(NCC1COC1)O[C@H]1CC[C@@H](c2cc(Nc3ccc4c(c3F)CNS4(=O)=O)n[nH]2)C1 (relative stereo) [Example 148, cis-3-(3-((4-fluoro-1,1-dioxido-2,3-dihydrobenzo[d]isothiazol-5-yl)amino)-1H-pyrazol-5-yl)cyclopentyl(oxetan-3-ylmethyl)carbamate] | 44 nM | 523 nM
[2H]C([2H])([2H])N1c2c(F)cc(Nc3cc([C@@H]4CC[C@H](OC(=O)NC5(C)CC5)C4)[nH]n3)cc2CS1(=O)=O (single isomer, unassigned) [Example 291b, cis-3-(3-((7-fluoro-1-(methyl-d3)-2,2-dioxido-1,3-dihydrobenzo[c]isothiazol-5-yl)amino)-1H-pyrazol-5-yl)cyclopentyl(1-methylcyclopropyl)carbamate] | 1.3 nM | 48 nM
CC(C)NC(=O)O[C@H]1CC[C@@H](c2cc(Nc3ccc4c(c3F)CN(CC3COC3)S4(=O)=O)n[nH]2)C1 (relative stereo) [Example 97, cis-3-(3-((4-fluoro-2-(oxetan-3-ylmethyl)-1,1-dioxido-2,3-dihydrobenzo[d]isothiazol-5-yl)amino)-1H-pyrazol-5-yl)cyclopentyl isopropylcarbamate] | 5.2 nM | 449 nM
CN1c2ccc(Nc3cc([C@@H]4CC[C@H](OC(=O)NC5CCC5)C4)[nH]n3)cc2CS1(=O)=O (single isomer, unassigned) [Example 227b, cis-3-(3-((1-methyl-2,2-dioxido-1,3-dihydrobenzo[c]isothiazol-5-yl)amino)-1H-pyrazol-5-yl)cyclopentyl cyclobutylcarbamate] | 1.3 nM | 45 nM
COCN1c2c(F)cc(Nc3cc([C@@H]4CC[C@H](OC(=O)NC(C)C)C4)[nH]n3)cc2CS1(=O)=O (relative stereo) [Example 282, cis-3-(3-((7-fluoro-1-(methoxymethyl)-2,2-dioxido-1,3-dihydrobenzo[c]isothiazol-5-yl)amino)-1H-pyrazol-5-yl)cyclopentyl isopropylcarbamate] | 7.7 nM | 141 nM
CCCNC(=O)O[C@H]1CC[C@@H](c2cc(Nc3ccc4c(c3)CCS(=O)(=O)N4)n[nH]2)C1 (relative stereo) [Example 247, cis-3-(3-((2,2-dioxido-3,4-dihydro-1H-benzo[c][1,2]thiazin-6-yl)amino)-1H-pyrazol-5-yl)cyclopentyl propylcarbamate] | 9.7 nM | 79 nM
[2H]C([2H])([2H])N1Cc2c(ccc(Nc3cc([C@@H]4CC[C@H](OC(=O)NCCC)C4)[nH]n3)c2F)S1(=O)=O (relative stereo) [Example 130, cis-3-(3-((4-fluoro-2-(methyl-d3)-1,1-dioxido-2,3-dihydrobenzo[d]isothiazol-5-yl)amino)-1H-pyrazol-5-yl)cyclopentyl propylcarbamate] | 5.7 nM | 241 nM
CC(C)(C)NC(=O)O[C@H]1CC[C@@H](c2cc(Nc3ccc4c(c3F)CNS4(=O)=O)n[nH]2)C1 (relative stereo) [Example 159, cis-3-(3-((4-fluoro-1,1-dioxido-2,3-dihydrobenzo[d]isothiazol-5-yl)amino)-1H-pyrazol-5-yl)cyclopentyl tert-butylcarbamate] | 1 nM | 30 nM
C[C@@H](CO)NC(=O)O[C@H]1CC[C@@H](c2cc(Nc3ccc4c(c3F)CNS4(=O)=O)n[nH]2)C1 (single isomer, unassigned) [Example 328b] | 31 nM | 1970 nM
CC[C@H](C)NC(=O)O[C@H]1CC[C@@H](c2cc(Nc3ccc4c(c3F)C(C)(C)NS4(=O)=O)n[nH]2)C1 (relative stereo) [Example 57, cis-3-(3-((4-fluoro-3,3-dimethyl-1,1-dioxido-2,3-dihydrobenzo[d]isothiazol-5-yl)amino)-1H-pyrazol-5-yl)cyclopentyl((S)-sec-butyl)carbamate] | 48 nM | 1080 nM
